system: Meloidogyne incognita; assay: Meloidogyne incognita test (sand, lettuce, gall formation); type: in vivo; conditions: Meloidogyne incognita, 336 h, 4 ppm, after 14 days; read-out: nematicidal efficacy (formation of galls)
Method: Meloidogyne incognita Test [table] To produce a suitable active compound preparation, 1 part by weight of active compound is mixed with the stated amount of solvent and the concentrate is diluted to the desired concentration with water. Vessels are filled with sand, active compound solution, an egg/larvae suspension of the southern root-knot nematode (Meloidogyne incognita) and lettuce seeds. The lettuce seeds germinate and the plants develop. The galls develop on the roots. After 14 days, the nematicidal efficacy in % is determined by the formation of galls. 100% means that no galls were found; 0% means that the number of galls on the treated plants corresponds to the untreated control.

`Cn1nc(C(=O)NS(=O)(=O)c2c(Cl)cccc2Cl)cc1-c1c(F)cccc1F` [I-145] and `O=C(NS(=O)(=O)c1c(Cl)cccc1Cl)c1cn(Cc2ccc(Cl)cc2)cn1` [I-149] are the same in pest or weed control at 4 ppm: 90% for the first, 90% for the second.

same assay, conditions: Meloidogyne incognita, 336 h, 20 ppm, after 14 days; read-out: nematicidal efficacy (formation of galls)

Compared with `COc1ccc(Cl)c(S(=O)(=O)NC(=O)c2ncn(CC(F)(F)C(F)(F)F)c2Cl)c1` [I-098], `O=C(NS(=O)(=O)c1c(Cl)cccc1Cl)c1ncn(CC(F)(F)C(F)(F)F)c1Cl` [I-099] is lower in pest or weed control at 20 ppm: 90% for the first, 70% for the second.

Going from `COc1ccc(Cl)c(S(=O)(=O)NC(=O)c2ncn(C(C)CC(F)(F)F)c2Cl)c1` (stereo not drawn) [I-100] to `CC(CC(F)(F)F)n1cnc(C(=O)NS(=O)(=O)c2c(Cl)cccc2Cl)c1Cl` (stereo not drawn) [I-101], the pest or weed control at 20 ppm rises from 90% to 100%.

Compared with `CC(CC(F)(F)F)n1cnc(C(=O)NS(=O)(=O)c2ccccc2C(F)(F)F)c1Cl` (stereo not drawn) [I-102], `O=C(NS(=O)(=O)c1cc(C(F)(F)F)ccc1Cl)c1ncn(C2CC2C(F)(F)F)c1Cl` (stereo not drawn) [I-105] is lower in pest or weed control at 20 ppm: 100% for the first, 90% for the second.

`COc1ccc(Cl)c(S(=O)(=O)NC(=O)c2ncn(C3CC3C(F)(F)F)c2Cl)c1` (stereo not drawn) [I-103] and `CC(C)Oc1ccc(Cl)c(S(=O)(=O)NC(=O)c2ncn(C3CC3C(F)(F)F)c2Cl)c1` (stereo not drawn) [I-104] are the same in pest or weed control at 20 ppm: 100% for the first, 100% for the second.

Compared with `COc1ccc(Cl)c(S(=O)(=O)NC(=O)c2nc(Br)n(CCC(F)(F)F)c2Br)c1` [I-108], `O=C(NS(=O)(=O)c1cc(Cl)ccc1Cl)c1nc(Cl)n(CCC(F)(F)F)c1Cl` [I-123] is lower in pest or weed control at 20 ppm: 100% for the first, 90% for the second.

`COc1ccc(Cl)c(S(=O)(=O)NC(=O)c2nc(C)n(-c3cc(Cl)cc(Cl)c3)c2Br)c1` [I-109] and `COc1ccc(Cl)c(S(=O)(=O)NC(=O)c2nc(C)n(-c3cc(Cl)cc(Cl)c3)c2I)c1` [I-110] are the same in pest or weed control at 20 ppm: 100% for the first, 100% for the second.

`Cc1nc(C(=O)NS(=O)(=O)c2ccccc2Cl)c(Cl)n1-c1cc(Cl)cc(Cl)c1` [I-111] and `Cc1ccccc1S(=O)(=O)NC(=O)c1nc(C)n(-c2cc(Cl)cc(Cl)c2)c1Cl` [I-112] are the same in pest or weed control at 20 ppm: 100% for the first, 100% for the second.

`O=C(NS(=O)(=O)c1ccccc1Cl)c1nc(Cl)n(-c2cc(Cl)cc(Cl)c2)c1Cl` [I-114] and `Cc1ccccc1S(=O)(=O)NC(=O)c1nc(Cl)n(-c2cc(Cl)cc(Cl)c2)c1Cl` [I-115] are the same in pest or weed control at 20 ppm: 100% for the first, 100% for the second.

`CC(C)S(=O)(=O)NC(=O)c1cn(C)c(Cc2ccccc2Cl)n1` [I-117] and `Cn1cc(C(=O)NS(=O)(=O)c2ccccc2Cl)nc1Cc1cccc(Cl)c1` [I-119] are the same in pest or weed control at 20 ppm: 90% for the first, 90% for the second.

`O=C(NS(=O)(=O)c1ccccc1Cl)c1nc(Cl)n(CCC(F)(F)F)c1Cl` [I-124] and `COc1ccc(S(=O)(=O)NC(=O)c2nc(Cl)n(CCC(F)(F)F)c2Cl)cc1` [I-125] are the same in pest or weed control at 20 ppm: 100% for the first, 100% for the second.

Compared with `Cn1nc(C(=O)NS(C)(=O)=O)cc1-c1cccc(Cl)n1` [I-126], `Cn1nc(C(=O)NS(C)(=O)=O)cc1-c1ncccc1Cl` [I-128] is lower in pest or weed control at 20 ppm: 100% for the first, 70% for the second.

`COc1ccc(Cl)c(S(=O)(=O)NC(=O)c2cc(-c3cccc(Cl)c3)n(C)n2)c1` [I-129] and `Cn1nc(C(=O)NS(=O)(=O)c2cc(Cl)ccc2Cl)cc1-c1cccc(Cl)c1` [I-132] are the same in pest or weed control at 20 ppm: 90% for the first, 90% for the second.

`COc1ccc(Cl)c(S(=O)(=O)NC(=O)c2cc(-c3ccccc3Cl)n(C)n2)c1` [I-130] and `COc1ccc(Cl)c(S(=O)(=O)NC(=O)c2cc(-c3c(F)cccc3F)n(C)n2)c1` [I-144] are the same in pest or weed control at 20 ppm: 90% for the first, 90% for the second.

First: Cn1nc(C(=O)NS(=O)(=O)c2cc(Cl)ccc2Cl)cc1-c1ccc(Cl)cc1 [I-131]
Second: Cn1nc(C(=O)NS(=O)(=O)c2cc(Cl)ccc2Cl)cc1-c1ccccc1 [I-133]
The pest or weed control at 20 ppm of the first is higher: 90% for the first, 70% for the second.

`Cn1nc(C(=O)NS(=O)(=O)c2cc(Cl)ccc2Cl)cc1-c1cc(Cl)cc(Cl)c1` [I-134] and `Cn1nc(C(=O)NS(=O)(=O)c2cc(Cl)ccc2Cl)cc1-c1cc(F)cc(C(F)(F)F)c1` [I-140] are the same in pest or weed control at 20 ppm: 100% for the first, 100% for the second.

Going from `Cn1nc(C(=O)NS(=O)(=O)c2cc(Cl)ccc2Cl)cc1-c1cccc(C(F)(F)F)c1` [I-135] to `COc1ccc(Cl)c(S(=O)(=O)NC(=O)c2cc(-c3cccc(C(F)(F)F)c3)n(C)n2)c1` [I-138], the pest or weed control at 20 ppm rises from 90% to 100%.

`Cn1nc(C(=O)NS(=O)(=O)c2cc(Cl)ccc2Cl)cc1-c1ncc(C(F)(F)F)cc1Cl` [I-136] and `COc1ccc(Cl)c(S(=O)(=O)NC(=O)c2cc(-c3ncc(C(F)(F)F)cc3Cl)n(C)n2)c1` [I-139] are the same in pest or weed control at 20 ppm: 100% for the first, 100% for the second.

Going from `Cn1nc(C(=O)NS(=O)(=O)c2ccccc2Cl)cc1-c1c(F)cccc1F` [I-142] to `Cn1nc(C(=O)NS(=O)(=O)c2cc(Cl)ccc2Cl)cc1-c1c(F)cccc1F` [I-143], the pest or weed control at 20 ppm falls from 100% to 90%.

First: Cn1nc(C(=O)NS(=O)(=O)c2c(Cl)cccc2Cl)cc1-c1c(F)cccc1F [I-145]
Second: Cn1nc(C(=O)NS(=O)(=O)c2c(F)cccc2F)cc1-c1c(F)cccc1F [I-146]
The pest or weed control at 20 ppm of the first is lower: 70% for the first, 100% for the second.

First: O=C(NS(=O)(=O)c1ccc(Cl)cc1Cl)c1cn(Cc2ccc(Cl)cc2)cn1 [I-148]
Second: O=C(NS(=O)(=O)c1cc(Cl)ccc1Cl)c1cn(Cc2ccc(Cl)cc2)cn1 [I-154]
The pest or weed control at 20 ppm of the first is higher: 100% for the first, 90% for the second.

`O=C(NS(=O)(=O)c1ccc(Cl)cc1)c1cn(Cc2ccccc2)cn1` [I-150] and `O=C(NS(=O)(=O)c1ccccc1)c1cn(Cc2ccc(Cl)cc2)cn1` [I-151] are the same in pest or weed control at 20 ppm: 100% for the first, 100% for the second.

`O=C(NS(=O)(=O)c1ccccc1)c1cn(Cc2ccccc2)cn1` [I-152] and `O=C(NS(=O)(=O)c1ccccc1)c1cn(Cc2ccccc2Cl)cn1` [I-155] are the same in pest or weed control at 20 ppm: 100% for the first, 100% for the second.

`O=C(NS(=O)(=O)c1cc(Cl)ccc1Cl)c1cn(Cc2ccccc2)cn1` [I-153] and `O=C(NS(=O)(=O)c1ccccc1Cl)c1cn(Cc2cccc(Cl)c2)cn1` [I-159] are the same in pest or weed control at 20 ppm: 100% for the first, 100% for the second.

Compared with `O=C(NS(=O)(=O)c1c(Cl)cccc1Cl)c1cn(Cc2ccccc2Cl)cn1` [I-157], `O=C(NS(=O)(=O)c1c(Cl)cccc1Cl)c1cn(-c2ccccc2Cl)cn1` [I-184] is higher in pest or weed control at 20 ppm: 90% for the first, 100% for the second.

`O=C(NS(=O)(=O)c1c(Cl)cccc1Cl)c1cn(Cc2cccc(C(F)(F)F)c2)cn1` [I-161] and `O=C(NS(=O)(=O)c1c(Cl)cccc1Cl)c1cn(-c2cccc(C(F)(F)F)c2)cn1` [I-177] are the same in pest or weed control at 20 ppm: 100% for the first, 100% for the second.

`O=C(NS(=O)(=O)c1ccccc1Cl)c1cn(Cc2cccc(C(F)(F)F)c2)cn1` [I-162] and `O=C(NS(=O)(=O)c1ccccc1Cl)c1cn(-c2cccc(C(F)(F)F)c2)cn1` [I-176] are the same in pest or weed control at 20 ppm: 100% for the first, 100% for the second.

Going from `Cc1nc(C(=O)NS(=O)(=O)c2ccccc2Cl)cn1Cc1ccccc1Cl` [I-163] to `Cc1nc(C(=O)NS(=O)(=O)c2ccccc2Cl)cn1Cc1cccc(Cl)c1` [I-168], the pest or weed control at 20 ppm rises from 90% to 100%.

`O=C(NS(=O)(=O)c1cccc(Cl)c1)c1cn(Cc2ccc(Cl)cc2)cn1` [I-164] and `O=C(NS(=O)(=O)c1ccccc1)c1cn(Cc2cc(Cl)cc(Cl)c2)cn1` [I-167] are the same in pest or weed control at 20 ppm: 90% for the first, 90% for the second.

`O=C(NS(=O)(=O)c1ccccc1Cl)c1cn(Cc2cc(Cl)cc(Cl)c2)cn1` [I-165] and `O=C(NS(=O)(=O)c1ccccc1Cl)c1cn(-c2cc(Cl)cc(Cl)c2)cn1` [I-181] are the same in pest or weed control at 20 ppm: 100% for the first, 100% for the second.

`O=C(NS(=O)(=O)c1c(Cl)cccc1Cl)c1cn(Cc2cc(Cl)cc(Cl)c2)cn1` [I-166] and `O=C(NS(=O)(=O)c1c(Cl)cccc1Cl)c1cn(-c2cc(Cl)cc(Cl)c2)cn1` [I-187] are the same in pest or weed control at 20 ppm: 100% for the first, 100% for the second.

First: Cc1nc(C(=O)NS(=O)(=O)c2c(Cl)cccc2Cl)cn1Cc1cccc(Cl)c1 [I-169]
Second: O=C(NS(=O)(=O)c1c(Cl)cccc1Cl)c1cn(-c2cccc(Cl)c2)cn1 [I-175]
The pest or weed control at 20 ppm of the first is lower: 90% for the first, 100% for the second.

`O=C(NS(=O)(=O)c1ccccc1Cl)c1cn(-c2cccc(Cl)c2)cn1` [I-174] and `O=C(NS(=O)(=O)c1ccccc1Cl)c1cn(-c2ccc(Cl)cc2)cn1` [I-185] are the same in pest or weed control at 20 ppm: 100% for the first, 100% for the second.

Going from `COc1ccc(Cl)c(S(=O)(=O)NC(=O)c2cn(-c3cccc(C(F)(F)F)c3)cn2)c1` [I-178] to `COc1ccc(Cl)c(S(=O)(=O)NC(=O)c2cn(-c3cccc(Cl)c3)cn2)c1` [I-179], the pest or weed control at 20 ppm falls from 100% to 90%.

Going from `O=C(NS(=O)(=O)c1ccccc1)c1cn(-c2cc(Cl)cc(Cl)c2)cn1` [I-180] to `O=C(NS(=O)(=O)c1ccc(Cl)cc1)c1cn(-c2cc(Cl)cc(Cl)c2)cn1` [I-182], the pest or weed control at 20 ppm falls from 100% to 90%.

Going from `O=C(NS(=O)(=O)c1ccccc1Cl)c1cn(-c2ccccc2Cl)cn1` [I-183] to `O=C(NS(=O)(=O)c1ccccc1Cl)c1cn(-c2ccccc2)cn1` [I-191], the pest or weed control at 20 ppm rises from 90% to 100%.

First: O=C(NS(=O)(=O)c1c(Cl)cccc1Cl)c1cn(-c2ccc(Cl)cc2)cn1 [I-186]
Second: O=C(NS(=O)(=O)c1c(Cl)cccc1Cl)c1cn(-c2ccccc2)cn1 [I-192]
The pest or weed control at 20 ppm of the first is lower: 90% for the first, 100% for the second.

First: COc1ccc(Cl)c(S(=O)(=O)NC(=O)c2cn(-c3cc(Cl)cc(Cl)c3)cn2)c1 [I-188]
Second: O=C(NS(=O)(=O)c1ccc(Cl)cc1Cl)c1cn(-c2cc(Cl)cc(Cl)c2)cn1 [I-189]
The pest or weed control at 20 ppm of the first is higher: 100% for the first, 90% for the second.

`COc1ccc(Cl)c(S(=O)(=O)NC(=O)c2cn(-c3ccc(Cl)cc3)cn2)c1` [I-190] and `O=C(NS(=O)(=O)c1ccccc1)c1cn(-c2ccc(Cl)c(Cl)c2)cn1` [I-193] are the same in pest or weed control at 20 ppm: 100% for the first, 100% for the second.

Reference: patent US10820591B2, “Substituted sulfonyl amides for controlling animal pests” (Bayer Aktiengesellschaft, priority 2016, dated 2020)
